In patent US12433961B2, “Near-infrared fluorescent probe specifically targeting tumors as well as synthesis method and use thereof” (NANJING NUOYUAN MEDICAL INSTRUMENT CO. LTD, priority 2022, dated 2025):

System: colorectal cancer HT29 subcutaneous tumor
Test: In-vivo near-infrared fluorescence imaging in subcutaneous HT29 tumor-bearing mouse model
Details: HT29 tumor-bearing mice, 30 nmol tail vein, imaging 0 h-48 h
Procedure: In a subcutaneous tumor HT29 tumor-bearing mouse model, YQ-H (30 nmol, dissolved with 100 μL of normal saline for injection) series probes respectively underwent tail vein administration, fluorescence imaging was respectively photographed at different time points (0 h, 6 h, 12 h, 24 h and 48 h in sequence) by small animal living imaging CCD.

CC1(C)C(/C=C/C2=C(SCCC(=O)NCCCCCC(=O)N(CCS(C)(=O)=O)Cc3ccc(-c4ccc5ncnc(Nc6ccc(OCc7cccc(F)c7)c(Cl)c6)c5c4)o3)C(=C/C=C3/N(CCCS(=O)(=O)O)c4ccc(S(=O)(=O)O)cc4C3(C)C)/CCC2)=[N+](CCCS(=O)(=O)O)c2ccc(S(=O)(=O)[O-])cc21 [YQ-H-03]
fluorescence signals in liver: strong fluorescence signals in liver | tumor targeting effect: a certain tumor targeting effect
